Binding and Kd data for two compounds are collected here from PMC11956004 (2025).

Starred links: 1 amine or outer side, 2 acyl side, 3 side chain; linkers in the order of their positions; H or OH if unused. Positions of bridges follow the written chain, without caps; N, C: chain ends. Non-standard residues stand in square brackets, D forms with d. Residues, ends and D or L forms follow the SMILES beside them. Chains are numbered I, II in the order given. Actinocin(9to1) = Cc1c2oc3c(C)ccc(C(=O)[*:1])c3nc-2c(C(=O)[*:2])c(N)c1=O; NMeV = CN[C@H](C(=O)O)C(C)C; Sar = CNCC(=O)O

Experiment [1] has as its system AAAGCACGAAAA (DNA, duplex) AAAGCACGAAAA/TTTTCGTGCTTT
The experiment is described as follows: CD titration. The conditions noted are these: Mg2+ 5 mM, Na+ (50 mM sodium cacodylate); 50 mM sodium cacodylate pH 7.2; 20 μM duplex, drug 1-4 equivalents.

The test system of experiment [2] is AAAGCAACGAAA (DNA, duplex) AAAGCAACGAAA/TTTCGTTGCTTT
The experiment can be described thus: CD titration. As to conditions: Mg2+ 5 mM, Na+ (50 mM sodium cacodylate); 50 mM sodium cacodylate pH 7.2; 20 μM duplex, drug 1-4 equivalents.

Experiment [3] concerns AAGCAAACGAAA (DNA, duplex) AAGCAAACGAAA/TTTCGTTTGCTT
The experiment is described as follows: CD titration. As to conditions: Mg2+ 5 mM, Na+ (50 mM sodium cacodylate); 50 mM sodium cacodylate pH 7.2; 20 μM duplex, drug 1-4 equivalents.

Experiment [4] relates to AAAAGCCGAAAA (DNA, duplex) AAAAGCCGAAAA/TTTTCGGCTTTT
The experiment is described as follows: fluorescence quenching of Dox, Hill fit. The conditions noted are these: Mg2+ 5 μM (so in the source); 50 μM Na cacodylate pH 7.3 (so in the source); 1 μM Dox alone, apparent; Kd decreases when ActD added.

Experiment [5] has the same test system. The experiment can be described thus: CD titration. As to conditions: Mg2+ 5 mM, Na+ (50 mM sodium cacodylate); 50 mM sodium cacodylate pH 7.2; 20 μM duplex, drug 1-4 equivalents.
Experiment [6] concerns d(AGCCGT)2 (DNA, duplex) AGCCGT/ACGGCT. The experiment can be described thus: X-ray crystallography (1.57 Å). The conditions noted are these: Mn2+ 3 mM, Li+ 30 mM, 25 mM MES pH 6.5, 3% PEG400, 20 °C.

Take `COc1cccc2c1C(=O)c1c(O)c3c(c(O)c1C2=O)C[C@@](O)(C(=O)CO)C[C@@H]3O[C@H]1C[C@H](N)[C@H](O)[C@H](C)O1`: the binding result in experiment [1] was “yes”; in experiment [2], “yes”; in experiment [3] it was “yes”; in experiment [5], “yes”; in experiment [6] (ternary complex with actinomycin D, intercalated at C4pG5), “yes”. The Kd in experiment [4] is 2.13 µM.

In the case of `Cc1c2oc3c(C)ccc(C(=O)N[C@@H]4C(=O)N[C@H](C(C)C)C(=O)N5CCC[C@H]5C(=O)N(C)CC(=O)N(C)[C@@H](C(C)C)C(=O)O[C@@H]4C)c3nc-2c(C(=O)N[C@@H]2C(=O)N[C@H](C(C)C)C(=O)N3CCC[C@H]3C(=O)N(C)CC(=O)N(C)[C@@H](C(C)C)C(=O)O[C@@H]2C)c(N)c1=O` (I: T[dV]P[Sar][NMeV] / II: T[dV]P[Sar][NMeV]; ester I:1-I:C, II:1-II:C; linker I:N-II:N via Actinocin(9to1)), the binding entry in experiment [1] was “yes”; in experiment [2], “yes”; in experiment [3], “yes”; in experiment [5] it was “yes”; in experiment [6] (ternary complex with doxorubicin, intercalated at G2pC3) it was “yes”.
